Activity calls are given as the source filed them. The rule behind the calls is not given here.
How the values were obtained:
[1] = molecular target: Rho-related GTP-binding protein RhoB (Homo sapiens) (UniProt P62745); test: Transactivation of RhoB (unknown origin) transfected in human HeLa cells at 5 uM measured over 10 secs by dual luciferase reporter gene assay; assay type: cell-based
[2] = system: NCI-H23; test: Growth of human NCI-H23 cells at 0.3 uM after 48 hrs by SRB assay; details: NCI-H23, 48 h
[3] = system: PC-3; test: Growth inhibition of human PC3 cells at 0.3 uM after 48 hrs by SRB assay; values are per cent of control; details: PC-3, 48 h
[4] = system: NCI-H23; test: Growth inhibition of human NCI-H23 cells after 48 hrs by SRB assay; assay type: functional; details: NCI-H23, 48 h
[5] = system: MDA-MB-231; test: Growth of human MDA-MB-231 cells at 0.1 uM after 48 hrs by SRB assay; details: MDA-MB-231, 48 h
[6] = system: PC-3; test: Growth of human PC3 cells at 10 uM after 48 hrs by SRB assay; details: PC-3, 48 h
[7] = system: NCI-H23; test: Growth inhibition of human NCI-H23 cells at 3 uM after 48 hrs by SRB assay; values are per cent of control; details: NCI-H23, 48 h
[8] = system: ACHN; test: Growth of human ACHN cells at 0.3 uM after 48 hrs by SRB assay
[9] = system: NUGC-3; test: Growth of human NUGC3 cells at 0.1 uM after 48 hrs by SRB assay; details: NUGC-3, 48 h
[10] = system: ACHN; test: Growth of human ACHN cells at 10 uM after 48 hrs by SRB assay
[11] = system: NCI-H23; test: Growth inhibition of human NCI-H23 cells at 1 uM after 48 hrs by SRB assay; values are per cent of control; details: NCI-H23, 48 h
[12] = system: MDA-MB-231; test: Growth of human MDA-MB-231 cells at 10 uM after 48 hrs by SRB assay; details: MDA-MB-231, 48 h
[13] = system: NUGC-3; test: Growth of human NUGC3 cells at 1 uM after 48 hrs by SRB assay; details: NUGC-3, 48 h
[14] = system: HCT-15; test: Growth inhibition of human HCT15 cells at 0.1 uM after 48 hrs by SRB assay; values are per cent of control; details: HCT-15, 48 h
[15] = system: ACHN; test: Growth inhibition of human ACHN cells after 48 hrs by SRB assay; assay type: functional
[16] = system: ACHN; test: Growth inhibition of human ACHN cells at 3 uM after 48 hrs by SRB assay; values are per cent of control
[17] = system: NCI-H23; test: Growth of human NCI-H23 cells at 10 uM after 48 hrs by SRB assay; details: NCI-H23, 48 h
[18] = system: PC-3; test: Growth inhibition of human PC3 cells at 1 uM after 48 hrs by SRB assay; values are per cent of control; details: PC-3, 48 h
[19] = system: HCT-15; test: Growth inhibition of human HCT15 cells after 48 hrs by SRB assay; assay type: functional
[20] = system: HCT-15; test: Growth inhibition of human HCT15 cells at 10 uM after 48 hrs by SRB assay; values are per cent of control; details: HCT-15, 48 h
[21] = system: NUGC-3; test: Growth inhibition of human NUGC3 cells after 48 hrs by SRB assay; assay type: functional; details: NUGC-3, 48 h
[22] = system: PC-3; test: Growth inhibition of human PC3 cells after 48 hrs by SRB assay; assay type: functional; details: PC-3, 48 h
[23] = system: MDA-MB-231; test: Growth of human MDA-MB-231 cells at 3 uM after 48 hrs by SRB assay; values are per cent of control; details: MDA-MB-231, 48 h
[24] = system: MDA-MB-231; test: Growth of human MDA-MB-231 cells at 1 uM after 48 hrs by SRB assay; details: MDA-MB-231, 48 h
[25] = system: NUGC-3; test: Growth inhibition of human NUGC3 cells at 10 uM after 48 hrs by SRB assay; values are per cent of control; details: NUGC-3, 48 h
[26] = system: MDA-MB-231; test: Growth inhibition of human MDA-MB-231 cells at 0.3 uM after 48 hrs by SRB assay; values are per cent of control; details: MDA-MB-231, 48 h
[27] = system: NUGC-3; test: Growth of human NUGC3 cells at 0.3 uM after 48 hrs by SRB assay; details: NUGC-3, 48 h
[28] = system: MDA-MB-231; test: Growth inhibition of human MDA-MB-231 cells after 48 hrs by SRB assay; assay type: functional; details: MDA-MB-231, 48 h
[29] = system: ACHN; test: Growth of human ACHN cells at 0.1 uM after 48 hrs by SRB assay
[30] = system: PC-3; test: Growth inhibition of human PC3 cells at 0.1 uM after 48 hrs by SRB assay; values are per cent of control; details: PC-3, 48 h
[31] = system: HCT-15; test: Growth inhibition of human HCT15 cells at 1 uM after 48 hrs by SRB assay; values are per cent of control; details: HCT-15, 48 h
[32] = system: NCI-H23; test: Growth inhibition of human NCI-H23 cells at 0.1 uM after 48 hrs by SRB assay; values are per cent of control; details: NCI-H23, 48 h
[33] = system: PC-3; test: Growth inhibition of human PC3 cells at 3 uM after 48 hrs by SRB assay; values are per cent of control; details: PC-3, 48 h
[34] = system: HCT-15; test: Growth of human HCT15 cells at 3 uM after 48 hrs by SRB assay; details: HCT-15, 48 h
[35] = system: NUGC-3; test: Growth inhibition of human NUGC3 cells at 3 uM after 48 hrs by SRB assay; values are per cent of control; details: NUGC-3, 48 h
[36] = system: ACHN; test: Growth inhibition of human ACHN cells at 1 uM after 48 hrs by SRB assay; values are per cent of control
[37] = system: HCT-15; test: Growth of human HCT15 cells at 0.3 uM after 48 hrs by SRB assay; details: HCT-15, 48 h

Rho-related GTP-binding protein RhoB (Homo sapiens), sequence (P62745 whole entry): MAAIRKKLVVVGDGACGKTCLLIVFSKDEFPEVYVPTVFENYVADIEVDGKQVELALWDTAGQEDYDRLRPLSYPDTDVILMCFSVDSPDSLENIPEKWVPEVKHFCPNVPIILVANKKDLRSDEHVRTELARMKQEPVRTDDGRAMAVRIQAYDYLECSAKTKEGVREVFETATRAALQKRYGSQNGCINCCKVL

CCCCCCCCCCCCCCS(=O)(=O)NCCC[N+](C)(C)C [TRIMETHYL-[3-(TETRADECANE-1-SULFONYLAMINO)-PROPYL]-AMMONIUM IODIDE]
Activity [1]: Active | growth, % of control at 0.3 µM [2]: 86.5% | growth, % of control at 0.3 µM [3]: 80.6% | GI50 [4]: 460 nM | growth, % of control at 0.1 µM [5]: 84.6% | growth, % of control at 10 µM [6]: -7.8% | growth, % of control at 3 µM [7]: -5.1% | growth, % of control at 0.3 µM [8]: 88.6% | growth, % of control at 0.1 µM [9]: 84.4% | growth, % of control at 10 µM [10]: 29.7% | growth, % of control at 1 µM [11]: 48.4% | growth, % of control at 10 µM [12]: 25.1% | growth, % of control at 1 µM [13]: 43.1% | growth, % of control at 0.1 µM [14]: 94.3% | GI50 [15]: 2040 nM | growth, % of control at 3 µM [16]: 49.9% | growth, % of control at 10 µM [17]: -34.5% | growth, % of control at 1 µM [18]: 52.2% | GI50 ([19]; HCT-15, 48 h): 940 nM | growth, % of control at 10 µM [20]: 22% | GI50 [21]: 380 nM | GI50 [22]: 450 nM | growth, % of control at 3 µM [23]: 45.3% | growth, % of control at 1 µM [24]: 76.7% | growth, % of control at 10 µM [25]: 5.4% | growth, % of control at 0.3 µM [26]: 86.4% | growth, % of control at 0.3 µM [27]: 73.2% | GI50 [28]: 1400 nM | growth, % of control at 0.1 µM [29]: 88% | growth, % of control at 0.1 µM [30]: 86.7% | growth, % of control at 1 µM [31]: 66.5% | growth, % of control at 0.1 µM [32]: 84.7% | growth, % of control at 3 µM [33]: 9.5% | growth, % of control at 3 µM [34]: 31.5% | growth, % of control at 3 µM [35]: 21.5% | growth, % of control at 1 µM [36]: 96.8% | growth, % of control at 0.3 µM [37]: 91.2%

CCCCCCCCCCCCCCCCS(=O)(=O)N(C)CC[N+](C)(C)CC
Activity [1]: Active | growth, % of control at 0.3 µM [2]: 78.3% | growth, % of control at 0.3 µM [3]: 87.3% | GI50 [4]: 1810 nM | growth, % of control at 0.1 µM [5]: 75.8% | growth, % of control at 10 µM [6]: -18.7% | growth, % of control at 3 µM [7]: 61.6% | growth, % of control at 0.3 µM [8]: 93.9% | growth, % of control at 0.1 µM [9]: 88% | growth, % of control at 10 µM [10]: 21.5% | growth, % of control at 1 µM [11]: 84% | growth, % of control at 10 µM [12]: -3.8% | growth, % of control at 1 µM [13]: 30% | growth, % of control at 0.1 µM [14]: 101% | GI50 [15]: 1750 nM | growth, % of control at 3 µM [16]: 52.7% | growth, % of control at 10 µM [17]: 13.5% | growth, % of control at 1 µM [18]: 54.1% | GI50 ([19]; HCT-15, 48 h): 1260 nM | growth, % of control at 10 µM [20]: 26.7% | GI50 [21]: 360 nM | GI50 [22]: 570 nM | growth, % of control at 3 µM [23]: 36.5% | growth, % of control at 1 µM [24]: 51.9% | growth, % of control at 10 µM [25]: 4% | growth, % of control at 0.3 µM [26]: 77.8% | growth, % of control at 0.3 µM [27]: 81.3% | GI50 [28]: 540 nM | growth, % of control at 0.1 µM [29]: 96.2% | growth, % of control at 0.1 µM [30]: 91.4% | growth, % of control at 1 µM [31]: 69.7% | growth, % of control at 0.1 µM [32]: 80.8% | growth, % of control at 3 µM [33]: 14.2% | growth, % of control at 3 µM [34]: 35.2% | growth, % of control at 3 µM [35]: 17.2% | growth, % of control at 1 µM [36]: 77.8% | growth, % of control at 0.3 µM [37]: 98.4%

CCCCCCCCCCCCCCS(=O)(=O)NCC(C)(C)C[N+](C)(C)CC
Activity [1]: Active | growth, % of control at 0.3 µM [2]: 109% | growth, % of control at 0.3 µM [3]: 99.3% | GI50 [4]: 730 nM | growth, % of control at 0.1 µM [5]: 91.2% | growth, % of control at 10 µM [6]: -26% | growth, % of control at 3 µM [7]: 28.3% | growth, % of control at 0.3 µM [8]: 97.7% | growth, % of control at 0.1 µM [9]: 110% | growth, % of control at 10 µM [10]: 36.1% | growth, % of control at 1 µM [11]: 52.9% | growth, % of control at 10 µM [12]: 12.9% | growth, % of control at 1 µM [13]: 33.8% | growth, % of control at 0.1 µM [14]: 112% | GI50 [15]: 2520 nM | growth, % of control at 3 µM [16]: 60.6% | growth, % of control at 10 µM [17]: -4% | growth, % of control at 1 µM [18]: 19.6% | GI50 [19]: inactive | growth, % of control at 10 µM [20]: 59.4% | GI50 [21]: 510 nM | GI50 [22]: 460 nM | growth, % of control at 3 µM [23]: 32.8% | growth, % of control at 1 µM [24]: 49.9% | growth, % of control at 10 µM [25]: -15.7% | growth, % of control at 0.3 µM [26]: 89.3% | growth, % of control at 0.3 µM [27]: 107% | GI50 [28]: 720 nM | growth, % of control at 0.1 µM [29]: 101% | growth, % of control at 0.1 µM [30]: 106% | growth, % of control at 1 µM [31]: 104% | growth, % of control at 0.1 µM [32]: 121% | growth, % of control at 3 µM [33]: -11.9% | growth, % of control at 3 µM [34]: 91.6% | growth, % of control at 3 µM [35]: 3.9% | growth, % of control at 1 µM [36]: 68.2% | growth, % of control at 0.3 µM [37]: 111%
